Measured values reported in patent publication US20100292283A1, “NOVEL PHENYL-ACETAMIDE AND PHENYL-PROPIONAMIDE DERIVATIVES USEFUL AS POTASSIUM CHANNEL MODULATORS” (priority 2007, published 2010).

Molecular target: T1, BK channels (Homo sapiens, UniProt Q12791)
T1 construct: expressed in transfected cells; host or cells: Xenopus laevis oocytes
Assay: BK channel opening activity, two-electrode voltage clamp in Xenopus oocytes
Assay type: cell-based
Conditions: BK channels heterologously expressed in Xenopus oocytes, 0.01-31.6 μM compound
Description: In this example the BK channel opening activity of Compound 8 is determined using BK channels heterologously expressed in Xenopus iaevis oocytes.
The electrical current through the BK channel was measured using conventional two-electrode voltage clamp. BK currents were activated by repeating ramp protocols. In brief, the membrane potential was continuously changed from −120 mV to +120 mV within a 2 s period. The threshold for BK activation is approximately +30 mV under control conditions. Compounds were applied for 100 s during which the ramp protocol was repeated 10 times with 10 s intervals. In between the ramp protocols the membrane potential was clamped at −80 mV. The first three compound applications were control blanks where the current level is allowed to stabilize. […]
In order to evaluate the ability of the compounds to shift the BK activation curve towards lower membrane potentials, the BK current was transformed into conductance by using Ohm's law g=I/(Ememb−Erev), where g is the conductance, I is the current, Ememb is the membrane potential and Erev is the reversal potential. […] The control conductance level at a membrane potential of +100 mV was calculated, and the compound effect was evaluated as the potential difference, […], to the membrane potential at which the same conductance level was obtained in the presence of compound. […]

T1 sequence (Q12791 whole entry): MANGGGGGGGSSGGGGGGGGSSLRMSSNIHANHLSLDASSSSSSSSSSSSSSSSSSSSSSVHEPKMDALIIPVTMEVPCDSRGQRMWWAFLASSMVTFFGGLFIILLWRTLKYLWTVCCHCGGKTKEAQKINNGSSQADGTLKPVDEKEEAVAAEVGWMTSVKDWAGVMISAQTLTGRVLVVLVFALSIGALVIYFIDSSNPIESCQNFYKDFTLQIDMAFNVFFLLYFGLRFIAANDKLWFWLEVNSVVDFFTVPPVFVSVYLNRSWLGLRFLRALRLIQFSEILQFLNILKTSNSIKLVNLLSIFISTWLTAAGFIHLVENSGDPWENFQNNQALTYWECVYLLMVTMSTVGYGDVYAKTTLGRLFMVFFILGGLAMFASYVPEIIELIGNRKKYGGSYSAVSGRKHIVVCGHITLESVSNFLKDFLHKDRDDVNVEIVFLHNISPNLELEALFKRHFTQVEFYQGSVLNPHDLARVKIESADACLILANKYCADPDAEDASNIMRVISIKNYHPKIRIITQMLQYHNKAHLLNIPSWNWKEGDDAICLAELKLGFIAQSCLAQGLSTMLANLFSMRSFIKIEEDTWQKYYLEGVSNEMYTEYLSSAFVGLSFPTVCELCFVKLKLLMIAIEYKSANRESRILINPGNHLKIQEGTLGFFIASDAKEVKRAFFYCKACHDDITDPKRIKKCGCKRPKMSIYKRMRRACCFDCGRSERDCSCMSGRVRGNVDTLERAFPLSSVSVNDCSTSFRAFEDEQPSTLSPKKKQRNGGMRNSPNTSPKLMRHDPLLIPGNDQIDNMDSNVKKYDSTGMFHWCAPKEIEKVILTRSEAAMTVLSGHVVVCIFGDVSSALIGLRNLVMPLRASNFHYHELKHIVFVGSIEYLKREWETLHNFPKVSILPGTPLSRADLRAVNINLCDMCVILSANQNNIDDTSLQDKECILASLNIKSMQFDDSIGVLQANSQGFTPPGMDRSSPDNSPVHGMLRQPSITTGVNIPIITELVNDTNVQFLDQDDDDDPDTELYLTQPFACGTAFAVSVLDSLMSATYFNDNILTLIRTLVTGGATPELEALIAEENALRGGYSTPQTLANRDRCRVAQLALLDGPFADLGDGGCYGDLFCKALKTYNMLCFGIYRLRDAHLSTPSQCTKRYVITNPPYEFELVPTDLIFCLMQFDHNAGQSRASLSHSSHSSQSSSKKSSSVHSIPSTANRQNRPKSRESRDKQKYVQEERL

O=C(COc1cccc(Cl)c1)Nc1cc(Cl)ccc1-c1noc(=O)[nH]1 [Compound 8]
maximal left-shift for the BK-activation curve (ΔVmax) (fitted to sigmoidal logistic equation): -94 mV
EC50 (ramp -120 to +120 mV, ΔV at control conductance level of +100 mV, read-out: EC50 for the left-shift of the BKca-activation curve): 8.2 µM
